Laboratory results: US20260200931A1, “PYRIDINE POLYCYCLIC COMPOUND INHIBITOR, PREPARATION METHOD THEREFOR AND USE THEREOF” (SHANGHAI HANSOH BIOMEDICAL CO., LTD, priority 2022, published 2026)

What was measured:
[1] = biological target: T1, human CYP11B2 (Homo sapiens, UniProt P19099); test: G-402 cell enzyme experiment, human CYP11B2 (aldosterone production, HTRF); type: cell-based; details: G-402 cells stably expressing human CYP11B2; 1 μM 11-deoxycorticosterone; 16 h; aldosterone by HTRF
T1 construct: The main elements of an expression plasmid include ORF of human CYP11B1 or human CYP11B2; expressed in transfected cells
T1 sequence (P19099 25-503): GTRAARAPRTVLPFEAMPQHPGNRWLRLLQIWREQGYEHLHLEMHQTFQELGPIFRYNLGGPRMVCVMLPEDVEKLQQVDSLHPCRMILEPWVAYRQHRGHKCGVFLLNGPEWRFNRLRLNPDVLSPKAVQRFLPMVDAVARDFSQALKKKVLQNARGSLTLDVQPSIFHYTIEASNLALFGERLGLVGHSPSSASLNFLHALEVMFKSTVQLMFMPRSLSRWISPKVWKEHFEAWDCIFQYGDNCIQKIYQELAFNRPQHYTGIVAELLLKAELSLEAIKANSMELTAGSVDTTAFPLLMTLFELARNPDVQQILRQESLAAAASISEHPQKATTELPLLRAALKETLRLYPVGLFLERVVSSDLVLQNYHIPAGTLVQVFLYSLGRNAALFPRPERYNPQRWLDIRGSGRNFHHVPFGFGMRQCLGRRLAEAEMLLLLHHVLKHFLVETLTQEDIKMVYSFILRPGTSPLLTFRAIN
Source text: (§1) G-402 cell line was used as host cells to express (by transient or stable transfection) an enzyme of the human CYP11 family. Specifically, G-402 cell lines stably expressing human CYP11B1 and human CYP11B2 were established respectively. […] Therefore, the G-402 cell line is very suitable as a host cell for the ectopic expression of an enzyme of the CYP11 family.
(§2) The G-402 cell line, originally derived from renal myoblastoma, can be obtained from ATCC (CRL-1440). The main elements of an expression plasmid include ORF of human CYP11B1 or human CYP11B2, a suitable promoter (CMV promoter), and a suitable resistance marker (neomycin). The expression plasmid was transfected into G-402 cells by standard technology, and a specific antibiotic was then given for screening. The activity of the enzyme expressed by the screened monoclonal cells was assessed by 11-deoxycorticosterone (substrate of CYP11B2) and 11-deoxycortisol (substrate of CYP11B1).
(§3) The G-402 cells expressing CYP11 plasmid, as established in the above solution, were cultured in McCoy's 5a Modified Medium (ATCC Catalog No. 30-2007) containing 10% FCS and 400 μg/ml G418 in an incubator at 37° C. and 5% CO2. A cell enzyme experiment was carried out using DMEM/F12 medium containing 2.5% charcoal-treated FBS and an appropriate concentration of a substrate (1 μM 11-deoxycorticosterone or 1 μM 11-deoxycortisol). In order to detect the activity of the enzyme in the cells, the cells were plated in a 96-well plate and incubated for 16 h. The supernatant was then transfered and analyzed for the concentration of the expected product (the product of CYP11B2: aldosterone; the product of CYP11B1: cortisol). The concentrations of these products were determined by an HTRF experiment of CisBio.
(§4) In the cell enzyme experiment, the inhibitory effect of the test compound on the generated product can reflect the inhibitory effect thereof on the enzyme. The dose-dependent inhibition of the enzyme activity by the compound was calculated by plotting the concentration of the test compound (x axis) versus the measured product level (y axis). Then, the original data was fitted to a 4-parameter sigmoidal function (Morgan-Mercer-Flodin, MMF model) by least square method: y=(AB+Cx^D)/(B+x^D) in which A is the maximum y value, B is the EC50 determined by XLFit, C is the minimum y value, and D is the slope value. The maximum value A corresponds to the amount of the product detected without an inhibitor, and C corresponds to the amount of the product detected in the G402 cells expressing an empty plasmid.
(§5) The EC50 value of the compound of the present patent was determined by the above G-402 experiment system. […]

[2] = biological target: T2, human CYP11B1 (Homo sapiens, UniProt P15538); test: G-402 cell enzyme experiment, human CYP11B1 (cortisol production, HTRF); selectivity of CYP11B2 over CYP11B1; type: cell-based; details: G-402 cells expressing human CYP11B1 or CYP11B2; selectivity for CYP11B2 over CYP11B1
T2 construct: The main elements of an expression plasmid include ORF of human CYP11B1 or human CYP11B2; expressed in transfected cells
T2 sequence (P15538 25-503): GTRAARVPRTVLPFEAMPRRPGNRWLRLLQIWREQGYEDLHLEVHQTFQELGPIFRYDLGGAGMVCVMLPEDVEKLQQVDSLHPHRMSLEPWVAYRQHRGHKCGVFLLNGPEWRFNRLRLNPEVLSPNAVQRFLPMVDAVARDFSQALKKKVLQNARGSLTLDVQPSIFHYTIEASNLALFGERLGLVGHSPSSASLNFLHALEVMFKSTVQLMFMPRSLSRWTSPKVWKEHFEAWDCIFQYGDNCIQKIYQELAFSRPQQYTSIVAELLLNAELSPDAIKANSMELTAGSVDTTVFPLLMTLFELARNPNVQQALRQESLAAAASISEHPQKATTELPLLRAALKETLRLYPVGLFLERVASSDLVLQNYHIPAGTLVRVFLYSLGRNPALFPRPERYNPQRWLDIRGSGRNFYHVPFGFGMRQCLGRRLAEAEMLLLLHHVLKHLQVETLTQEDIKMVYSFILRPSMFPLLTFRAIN
Source text: as §1, §2, §3, §4, §5

[3] = Pharmacokinetic assay in mice; type: in vivo; details: mouse, male Balb/c mice, plasma, table does not print the route (objective: oral administration, PO 5 mg/kg)
Procedure: Balb/c mice were used as test animals to study the pharmacokinetic behavior of the compounds of the present disclosure in mice (plasma) after oral administration.
Compounds of the present disclosure, made in house.
3 Balb/c mice per group, male; from Shanghai Bk Lab Animal Co., Ltd., with animal production license number (SCXK (Shanghai) 2013-0006 N0.311620400001794).
0.5 g of sodium carboxymethyl cellulose (CMC-Na, viscosity: 800-1200 Cps) was weighed and dissolved in 99 mL of purified water, and 1 ml of Tween 80 was added. These materials were uniformly mixed to form a clear solution.
Examples 1 and 2 were weighed and dissolved in the solution, and the mixtures were shaken well and ultrasonicated for 15 min to obtain colorless clear solutions with a concentration of 0.5 mg/mL.
Examples 1 and 2 were weighed, and 5% of DMSO was added based on the total administration volume; the mixture was vortexed and ultrasonicated for 2 min to ensure complete dissolution; then, 10% Solutol HS15 was added, and the mixture was vortexed and ultrasonicated for 2 min to achieve complete dissolution; finally, 85% PBS was added, and the mixture was vortexed and ultrasonicated for 5 min; the resulting mixture was filtered through a […] filter membrane to obtain a colorless, transparent, and clear solution with a concentration of 0.2 mg/mL.
After overnight fasting, 3 male Balb/c mice per group were administered orally (PO) at a dose of 5 mg/kg with an administration volume of 10 mL/kg.
After overnight fasting, 3 male Balb/c mice per group were administered intravenously (IV) at a dose of 1 mg/kg with an administration volume of 5 mL/kg.
0.04 mL of blood was collected from the orbit of the experimental animals before administration and at 0.25 h, 0.5 h, 1.0 h, 2.0 h, 4.0 h, 6.0 h, 8.0 h, and 24.0 h after administration and placed in an EDTA-2K test tube, and the test tube was centrifuged at 8000 rpm for 6 min at 4° C. to separate the plasma, which was stored at −80° C.; and the animals were fed 4 h after administration.
The final determination results were obtained by using LCMS/MS method.

[4] = test system: aldosterone; test: In vivo efficacy assay, ACTH challenge: plasma aldosterone; design: species or system cynomolgus monkeys; details: for Aldosterone, 0: 0 hour after 5 μg/kg ACTH I.V. (given one hour after dosing); for Aldosterone, 0.5 h: 0.5 h after 5 μg/kg ACTH I.V.
Procedure: (§6) Male cynomolgus monkeys were gavaged (P.O.) with the compounds to be tested and divided into 0 mpk (vehicle group), 0.1 mpk, 0.3 mpk, 1 mpk, and 3 mpk dose groups. Each group was given 5 μg/kg ACTH intravenous injection (I.V.) after one hour. Blood samples were collected at −1 hour, 0 hour, 0.5 hours, 1.0 hour, 1.5 hours, 2 hours, and 3 hours after intravenous injection of ACTH. The volume was about 0.5 mL at each time point. The samples were centrifuged (3200 g, at 2-8° C. for 10 minutes) within one hour after collection. The contents of the plasma aldosterone, cortisol, corticosterone, 11-deoxycortisol, and 11-deoxycorticosterone at each time point were then analyzed by LC/MS-MS method.

[5] = test system: cortisol; test: In vivo efficacy assay, ACTH challenge: plasma cortisol; design: species or system cynomolgus monkeys; details: for Cortisol, 0: 0 hour after 5 μg/kg ACTH I.V. (given one hour after dosing); for Cortisol, 1 h: 1 h after 5 μg/kg ACTH I.V.
Procedure: as §6

CCC(=O)N[C@@H]1CCCc2c(-c3ccc4c(c3)COC(=O)N4C)cncc21 [Example 1-A]
EC50 [1]: 70 nM | hsF (human selective factor: ratio of CYP11B1 EC50 to CYP11B2 EC50) [2]: 144× | AUC(0-inf) [3]: 20800 ng·h/mL | AUC(0-t) [3]: 20800 ng·h/mL | Cmax [3]: 3770 ng/mL | Tmax [3]: 0.3 h | half-life [3]: 2.7 h | MRT inf ([3]; read-out: MRT0-∞): 4.7 h | Aldosterone, 0 ([4]; 0.1 mpk P.O.): 0.38 ng/mL | Aldosterone, 0.5 h ([4]; 0.1 mpk P.O.): 0.33 ng/mL | Aldosterone, 0 ([4]; 0.3 mpk P.O.): 0.23 ng/mL | Aldosterone, 0.5 h ([4]; 0.3 mpk P.O.): 0.17 ng/mL | Aldosterone, 0 ([4]; 1 mpk P.O.): 0.12 ng/mL | Aldosterone, 0.5 h ([4]; 1 mpk P.O.): 0.15 ng/mL | Aldosterone, 0 ([4]; 3 mpk P.O.): 0.13 ng/mL | Aldosterone, 0.5 h ([4]; 3 mpk P.O.): 0.09 ng/mL | Cortisol, 0 ([5]; 0.1 mpk P.O.): 246 ng/mL | Cortisol, 1 h ([5]; 0.1 mpk P.O.): 360 ng/mL | Cortisol, 0 ([5]; 0.3 mpk P.O.): 230 ng/mL | Cortisol, 1 h ([5]; 0.3 mpk P.O.): 355 ng/mL | Cortisol, 0 ([5]; 1 mpk P.O.): 215 ng/mL | Cortisol, 1 h ([5]; 1 mpk P.O.): 315 ng/mL | Cortisol, 0 ([5]; 3 mpk P.O.): 225 ng/mL | Cortisol, 1 h ([5]; 3 mpk P.O.): 326 ng/mL

CN1C(=O)OCc2cc(-c3cncc(N4CC5(CN(C(=O)c6cnn(C)c6)C5)C4)c3)ccc21 [Example 60, 1-Methyl-6-(5-(6-(1-methyl-1H-pyrazole-4-carbonyl)-2,6-diazaspiro[3.3]heptan-2-yl)pyridin-3-yl)-1,4-dihydro-2H-benzo[d][1,3]oxazin-2-one]
hsF (human selective factor: ratio of CYP11B1 EC50 to CYP11B2 EC50) [2]: >1279×

CCS(=O)(=O)N1CC(Oc2cncc(-c3ccc4c(c3)COC(=O)N4C)c2)C1 [Example 58, 6-(5-((1-(Ethylsulfonyl)azetidin-3-yl)oxy)pyridin-3-yl)-1-methyl-1,4-dihydro-2H-benzo[d][1,3]oxazin-2-one]
EC50 [1]: 48 nM

CN1C(=O)CCc2cc(-c3cncc4c3CCC[C@H]4NC(=O)CC34CC(C3)C4)ccc21 [Example 37]
EC50 [1]: 35 nM

CCC(=O)N[C@@H]1CCCc2c(-c3ccc4c(c3)OCC(=O)N4C)cncc21 [Example 2-A]
hsF (human selective factor: ratio of CYP11B1 EC50 to CYP11B2 EC50) [2]: 174×

CN1C(=O)OCc2cc(-c3cncc(C4=CCN(S(=O)(=O)C5CC5)CC4)c3)ccc21 [Example 68, 6-(1′-(Cyclopropylsulfonyl)-1′,2′,3′,6′-tetrahydro-[3,4′-bipyridine]-5-yl)-1-methyl-1,4-dihydro-2H-benzo[d][1,3]oxazin-2-one]
EC50 [1]: 7 nM | hsF (human selective factor: ratio of CYP11B1 EC50 to CYP11B2 EC50) [2]: 394×
